B1: Methanobrevibacter smithii Dph2 (enzyme, UniProt A5UMY5 1-334, looked up)
chain: MSMYNMDLDKVIRKINKKGARTVGLQFPEGLKMQAVKIAKAIESQTPATVIISGDPCFGACDVSDYKMKGSVDLIVHYGHTPLPLKYEVPTLFIEAFSNIDVKKDLEKCLEKLEDYSKIALVTTTQHLHLLNEIKDYLEDNGKEVVLGSSKNTKKGQVLGCNFSSIKNLDAEVYLFIGSGNFHPLGIYLFTKSPVLALDPYNSEIRDISAFADRILRIRFARITKAREAEKWGIIVSSKEGQYRMKLAKEIKKILEDNKMEAYIIMADNINPDILLPYMELDAFVVSACPRIAIDDSQMYKKPLLTPQELEIVLNKRQWENYQLDEILFHERYK

Tests used:
PhDph2 = PhDph2 (Pyrococcus horikoshii, UniProt O58832, R289A); assay: HPLC of SAM cleavage to MTA; assay type: biochemical; settings: 60 uM SAM, 1 mM dithionite, pH 7.4, 65 °C, 10 min, no EF-2, anaerobic
PhDph2, sequence (O58832 whole entry R289A): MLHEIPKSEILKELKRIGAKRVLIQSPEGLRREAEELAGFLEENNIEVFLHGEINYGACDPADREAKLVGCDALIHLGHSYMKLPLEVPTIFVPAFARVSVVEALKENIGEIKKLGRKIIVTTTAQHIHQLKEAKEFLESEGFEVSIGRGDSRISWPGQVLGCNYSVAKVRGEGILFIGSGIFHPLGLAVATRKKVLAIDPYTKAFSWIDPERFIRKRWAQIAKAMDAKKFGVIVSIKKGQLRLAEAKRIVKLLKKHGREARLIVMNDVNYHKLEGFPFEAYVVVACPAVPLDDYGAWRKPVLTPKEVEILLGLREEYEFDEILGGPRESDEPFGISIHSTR

crystal structure = molecular target: the molecule itself; assay: crystal structure

Molecule	HPLC of SAM cleavage to MTA (PhDph2)	stoichiometry N (crystal structure)
C[S+](CC[C@H](N)C(=O)O)C[C@H]1O[C@@H](n2cnc3c(N)ncnc32)[C@H](O)[C@@H]1O (some centres unmarked) [SAM]	the R289A mutant still had SAM cleavage activity	–
B1	–	2

From article PMC7857147 (Biochemistry, 2019)
